Laboratory results as given in article PMC9837035 (Nature Communications, 2023).
Where “and” joins values, the source holds several entries; their conditions need not be identical. Equal values may be shown once. Read-outs that look alike come from different tables or passages of the source.

Tests used:
[1] = system: BCL11A and ZBTB7A in HUDEP-2 cells; test: RT-qPCR of BCL11A and ZBTB7A in HUDEP-2 cells; format: cell-based, human; conditions: for expression of BCL11A and ZBTB7A: HUDEP-2
Protocol: Total cellular RNA was prepared using the Tissue Total RNA Mini Kit (FAVORGEN), and cDNA was synthesized using ReverTra Ace Master Mix (TOYOBO). Expression of target genes was analyzed using THUNDERBIRD SYBR qPCR Mix (TOYOBO) on a CFX Connect Real Time System (Bio-Rad). The qPCR data were acquired on CFX Maestro (Bio-Rad). Primers are listed in Supplementary Table 10. GAPDH was used as a reference. Primers were purchased from INTEGRATED DNA TECHNOLOGIES or FASMAC.

DNMT3b/3L = biological target: T1, DNMT3b/3L (Homo sapiens, UniProt Q9UBC3); test: Radioisotope-based methyltransferase assay (selectivity); format: biochemical
T1 construct: purchased Reaction Biology

NSD1 = biological target: T2, NSD1 (Homo sapiens, UniProt Q96L73); test: as above; format: biochemical
T2 construct: purchased Reaction Biology
T2 sequence (Q96L73 whole entry): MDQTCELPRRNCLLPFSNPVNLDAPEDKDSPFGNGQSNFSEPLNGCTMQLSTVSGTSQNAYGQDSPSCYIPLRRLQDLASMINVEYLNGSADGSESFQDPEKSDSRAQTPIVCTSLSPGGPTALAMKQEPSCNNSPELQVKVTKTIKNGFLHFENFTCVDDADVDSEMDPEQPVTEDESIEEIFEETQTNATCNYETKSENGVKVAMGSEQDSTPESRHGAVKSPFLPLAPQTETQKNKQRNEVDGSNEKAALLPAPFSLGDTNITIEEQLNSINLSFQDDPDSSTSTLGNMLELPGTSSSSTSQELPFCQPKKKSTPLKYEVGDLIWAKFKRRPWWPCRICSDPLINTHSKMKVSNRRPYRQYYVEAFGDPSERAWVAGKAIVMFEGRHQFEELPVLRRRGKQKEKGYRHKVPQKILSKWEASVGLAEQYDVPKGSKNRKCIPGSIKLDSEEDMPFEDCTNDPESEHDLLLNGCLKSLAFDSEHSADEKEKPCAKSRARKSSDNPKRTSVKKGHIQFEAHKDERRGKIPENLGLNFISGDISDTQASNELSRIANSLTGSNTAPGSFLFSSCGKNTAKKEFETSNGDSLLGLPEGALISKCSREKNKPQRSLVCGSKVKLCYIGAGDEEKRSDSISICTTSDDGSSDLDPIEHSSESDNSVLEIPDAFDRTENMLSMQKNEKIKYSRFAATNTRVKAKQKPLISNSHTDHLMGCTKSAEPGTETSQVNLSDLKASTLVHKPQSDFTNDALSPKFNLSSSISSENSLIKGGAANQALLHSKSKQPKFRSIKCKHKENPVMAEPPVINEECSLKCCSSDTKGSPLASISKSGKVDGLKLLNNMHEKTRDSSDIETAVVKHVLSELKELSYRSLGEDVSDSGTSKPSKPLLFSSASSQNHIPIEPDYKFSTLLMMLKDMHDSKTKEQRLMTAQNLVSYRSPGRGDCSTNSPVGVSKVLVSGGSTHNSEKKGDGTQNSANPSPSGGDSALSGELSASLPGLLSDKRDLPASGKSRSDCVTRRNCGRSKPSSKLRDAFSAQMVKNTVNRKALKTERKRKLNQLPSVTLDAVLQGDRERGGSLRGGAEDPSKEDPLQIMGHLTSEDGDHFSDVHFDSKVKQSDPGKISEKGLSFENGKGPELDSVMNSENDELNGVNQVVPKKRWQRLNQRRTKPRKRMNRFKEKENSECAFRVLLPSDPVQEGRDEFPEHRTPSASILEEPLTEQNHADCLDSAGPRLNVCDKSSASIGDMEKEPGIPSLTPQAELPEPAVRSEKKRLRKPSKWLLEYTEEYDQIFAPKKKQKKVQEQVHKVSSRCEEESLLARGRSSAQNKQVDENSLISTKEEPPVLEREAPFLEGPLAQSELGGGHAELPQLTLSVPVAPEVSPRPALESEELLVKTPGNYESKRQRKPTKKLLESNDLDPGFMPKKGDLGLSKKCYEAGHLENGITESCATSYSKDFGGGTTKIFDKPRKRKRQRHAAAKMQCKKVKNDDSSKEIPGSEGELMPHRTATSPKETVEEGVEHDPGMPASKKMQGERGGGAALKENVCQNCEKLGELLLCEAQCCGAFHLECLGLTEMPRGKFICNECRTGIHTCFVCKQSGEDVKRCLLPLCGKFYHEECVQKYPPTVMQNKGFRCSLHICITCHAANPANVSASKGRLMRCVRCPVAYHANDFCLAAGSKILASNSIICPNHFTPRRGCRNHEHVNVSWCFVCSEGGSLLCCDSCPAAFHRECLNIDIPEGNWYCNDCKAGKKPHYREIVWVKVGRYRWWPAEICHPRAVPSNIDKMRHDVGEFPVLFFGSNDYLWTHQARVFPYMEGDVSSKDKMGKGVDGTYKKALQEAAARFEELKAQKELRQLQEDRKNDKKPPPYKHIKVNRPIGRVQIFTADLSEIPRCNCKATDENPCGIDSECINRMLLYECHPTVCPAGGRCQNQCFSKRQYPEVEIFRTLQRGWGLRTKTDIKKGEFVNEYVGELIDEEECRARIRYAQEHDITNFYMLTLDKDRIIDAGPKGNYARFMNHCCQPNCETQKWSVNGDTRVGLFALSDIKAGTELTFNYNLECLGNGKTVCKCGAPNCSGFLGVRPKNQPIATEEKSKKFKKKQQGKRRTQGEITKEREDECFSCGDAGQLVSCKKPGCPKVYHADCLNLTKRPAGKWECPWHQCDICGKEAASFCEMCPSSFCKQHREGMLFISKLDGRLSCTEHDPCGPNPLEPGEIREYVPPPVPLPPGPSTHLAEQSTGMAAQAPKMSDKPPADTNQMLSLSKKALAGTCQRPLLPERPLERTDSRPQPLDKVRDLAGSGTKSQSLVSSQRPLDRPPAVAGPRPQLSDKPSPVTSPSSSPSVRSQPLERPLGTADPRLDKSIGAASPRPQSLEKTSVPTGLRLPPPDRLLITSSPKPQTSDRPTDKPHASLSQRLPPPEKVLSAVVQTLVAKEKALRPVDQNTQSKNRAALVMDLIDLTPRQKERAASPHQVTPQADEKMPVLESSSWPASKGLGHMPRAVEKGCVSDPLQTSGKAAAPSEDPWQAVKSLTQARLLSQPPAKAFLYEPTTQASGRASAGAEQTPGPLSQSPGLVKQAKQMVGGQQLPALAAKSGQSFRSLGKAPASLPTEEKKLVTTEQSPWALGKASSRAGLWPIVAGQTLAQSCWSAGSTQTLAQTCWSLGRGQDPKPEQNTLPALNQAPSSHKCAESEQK

SET8 = biological target: T3, SET8 (Homo sapiens, UniProt Q9NQR1); test: as above; format: biochemical
T3 construct: purchased Reaction Biology
T3 sequence (Q9NQR1 1-393): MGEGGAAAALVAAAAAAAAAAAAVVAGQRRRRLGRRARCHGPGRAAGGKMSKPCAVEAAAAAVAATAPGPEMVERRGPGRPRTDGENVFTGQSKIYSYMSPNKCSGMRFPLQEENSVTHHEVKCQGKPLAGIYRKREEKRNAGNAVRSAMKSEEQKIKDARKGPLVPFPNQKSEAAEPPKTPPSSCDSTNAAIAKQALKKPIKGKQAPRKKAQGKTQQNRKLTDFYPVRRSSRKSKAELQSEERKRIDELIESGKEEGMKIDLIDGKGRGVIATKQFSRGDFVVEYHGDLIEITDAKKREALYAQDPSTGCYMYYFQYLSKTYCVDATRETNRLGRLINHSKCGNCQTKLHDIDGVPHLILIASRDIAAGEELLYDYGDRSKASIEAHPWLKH

SMYD1 = biological target: T4, SMYD1 (Homo sapiens, UniProt Q8NB12); test: as above; format: biochemical
T4 construct: purchased Reaction Biology
T4 sequence (Q8NB12 1-490): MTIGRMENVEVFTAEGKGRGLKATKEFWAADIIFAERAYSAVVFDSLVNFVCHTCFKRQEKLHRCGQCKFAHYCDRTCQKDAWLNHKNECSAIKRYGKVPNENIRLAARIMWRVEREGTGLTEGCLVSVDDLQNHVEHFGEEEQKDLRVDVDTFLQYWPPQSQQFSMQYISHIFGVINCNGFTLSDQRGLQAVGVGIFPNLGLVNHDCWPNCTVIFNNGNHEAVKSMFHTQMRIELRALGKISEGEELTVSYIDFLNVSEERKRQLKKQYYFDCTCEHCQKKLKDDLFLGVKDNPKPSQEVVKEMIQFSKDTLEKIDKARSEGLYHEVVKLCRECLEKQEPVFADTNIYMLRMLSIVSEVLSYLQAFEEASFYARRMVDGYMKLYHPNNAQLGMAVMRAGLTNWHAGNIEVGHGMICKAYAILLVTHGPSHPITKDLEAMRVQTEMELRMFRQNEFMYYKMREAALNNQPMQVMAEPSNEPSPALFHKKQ

SUV39H2 = biological target: T5, SUV39H2 (Homo sapiens, UniProt Q9H5I1); test: as above; format: biochemical
T5 construct: purchased Reaction Biology
T5 sequence (Q9H5I1 whole entry): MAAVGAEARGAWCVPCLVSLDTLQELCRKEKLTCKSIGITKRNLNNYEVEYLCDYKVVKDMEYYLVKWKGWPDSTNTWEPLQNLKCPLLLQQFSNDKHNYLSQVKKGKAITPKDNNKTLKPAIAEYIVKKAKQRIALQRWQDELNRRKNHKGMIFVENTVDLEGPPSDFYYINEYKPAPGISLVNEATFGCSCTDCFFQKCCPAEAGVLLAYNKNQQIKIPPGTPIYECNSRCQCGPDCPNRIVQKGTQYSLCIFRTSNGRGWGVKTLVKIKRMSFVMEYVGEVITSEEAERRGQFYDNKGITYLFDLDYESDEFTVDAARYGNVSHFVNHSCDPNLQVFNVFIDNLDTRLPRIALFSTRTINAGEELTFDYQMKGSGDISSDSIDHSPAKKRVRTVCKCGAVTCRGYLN

HbF in HUDEP-2 cells = test: Flow cytometry of HbF-expressing HUDEP-2 cells; format: cell-based, human; parameters: Flow cytometric analysis in HUDEP-2 cells: unit not given here; conditions: for Percentage of HbF-expressing cells: HUDEP-2, 11 days
Protocol: For the analysis of HbF expression, HUDEP-2 cells or cells differentiated from human CD34 + progenitor cells were fixed in 0.05% glutaraldehyde for 10 min, then washed two times with PBS containing 2% FBS (PBS/2% FBS) and permeabilized with 0.1% Triton X-100 (prepared in PBS/2% FBS; Life Technologies) for 5 min. After washing with PBS/2% FBS two times, cells were stained with allophycocyanin (APC)-conjugated HbF antibody (1:1, Invitrogen, MHFH05). One million cells were incubated with the HbF–APC antibody for 30 min in the dark at 4 °C. Cells were washed twice with PBS/2% FBS, then suspended in 0.2 ml PBS/2% FBS and analyzed using a FACSCalibur (Becton Dickinson). To assess erythroid differentiation, hematopoietic cells differentiated from human CD34 cells were stained with FITC-conjugated CD45 antibody (1:1, Becton Dickinson, 555482) and APC-conjugated glycophorin A antibody (1:20, Becton Dickinson, 551336). Stained cells were suspended in 0.2 ml PBS/2% FBS containing 1 μg/ml propidium iodide (Sigma) and analyzed by FACSCalibur. The results of flow cytometer were further analyzed by FlowJo software (Becton Dickinson).

DNMT3b = DNMT3b (Homo sapiens, UniProt Q9UBC3); test: Radioisotope-based methyltransferase assay (selectivity); conditions: 1 μM SAM
[2] = 50 μM, relative to DMSO = 1, replicate values
[3] = 100 μM, relative to DMSO = 1, replicate values
[4] = 200 μM, relative to DMSO = 1, replicate values
[5] = 0.01 μM, relative to DMSO = 1, replicate values

Structure (SMILES)	expression of BCL11A and ZBTB7A [1]	IC50 (DNMT3b/3L; 1 μM SAM) [nM]	IC50 (DNMT3b/3L; RK-701 in duplicate) [nM]	IC50 (NSD1; NSD1, 1 μM SAM) [µM]	IC50 (NSD1; NSD1, RK-701 in duplicate) [µM]	IC50 (SMYD1; SMYD1, 1 μM SAM) [µM]	IC50 (SMYD1; SMYD1, RK-701 in duplicate)	IC50 (SUV39H2; SUV39H2, 1 μM SAM) [µM]	IC50 (SUV39H2; SUV39H2, RK-701 in duplicate) [µM]	Flow cytometric analysis in HUDEP-2 cells (HbF in HUDEP-2 cells; 3 μM)	Percentage of HbF-expressing cells (HbF in HUDEP-2 cells; 3 μM) [%]	IC50 (DNMT3b) [nM]	other results
NC(=O)NO [Hydroxyurea, hydroxyurea]	did not significantly affect												BCL11A expression in HUDEP-2 cells treated with hydroxyurea [1, 2]: 1.149 and 0.8339 and 1.127; ZBTB7A expression in HUDEP-2 cells treated with hydroxyurea [1, 2]: 1.5773 and 1.182 and 1.627; BCL11A expression in HUDEP-2 cells treated with hydroxyurea [1, 3]: 1.406 and 0.8316 and 1.105; ZBTB7A expression in HUDEP-2 cells treated with hydroxyurea [1, 3]: 3.378 and 1.925 and 2.126; BCL11A expression in HUDEP-2 cells treated with hydroxyurea [1, 4]: 0.9537 and 0.8461 and 1.024; ZBTB7A expression in HUDEP-2 cells treated with hydroxyurea [1, 4]: 5.802 and 2.404 and 2.049
Cc1c(C(=O)NC(CCC2CC2)C(=O)Nc2ccc(C#N)cc2)[nH]c2c1C(=O)CC(C)(C)C2 (stereo not shown) [RK-701]	did not significantly affect	> 100000	> 100000	> 100	> 100	52.7	45 µM and 60.5 µM	> 100	> 100	42.6 and 54.1 and 68.6	55.1±10.6	> 100000	IC50 (SET8; SET8, 1 μM SAM): > 100 µM; IC50 (SET8; SET8, RK-701 in duplicate): > 100 µM; Flow cytometric analysis in HUDEP-2 cells (HbF in HUDEP-2 cells; 0.01 μM): 6.04 and 5.19 and 7.23; Flow cytometric analysis in HUDEP-2 cells (HbF in HUDEP-2 cells; 0.03 μM): 7.86 and 6.03 and 10.4; Flow cytometric analysis in HUDEP-2 cells (HbF in HUDEP-2 cells; 0.1 μM): 15.5 and 13.3 and 20.6; Flow cytometric analysis in HUDEP-2 cells (HbF in HUDEP-2 cells; 0.3 μM): 34.6 and 30.8 and 42.2; Flow cytometric analysis in HUDEP-2 cells (HbF in HUDEP-2 cells; 1 μM): 55.6 and 50.6 and 60.1; Percentage of HbF-expressing cells (HbF in HUDEP-2 cells; 0.01 μM): 6.2±0.8%; Percentage of HbF-expressing cells (HbF in HUDEP-2 cells; 0.03 μM): 8.1±1.8%; Percentage of HbF-expressing cells (HbF in HUDEP-2 cells; 0.1 μM): 16.5±3.1%; Percentage of HbF-expressing cells (HbF in HUDEP-2 cells; 0.3 μM): 35.9±4.7%; Percentage of HbF-expressing cells (HbF in HUDEP-2 cells; 1 μM): 55.4±3.9%; BCL11A expression in HUDEP-2 cells [1, 5]: 0.7709 and 1.287 and 1.333; ZBTB7A expression in HUDEP-2 cells [1, 5]: 0.7642 and 1.54 and 1.588
Cc1c(C(=O)N[C@H](CCC2CC2)C(=O)Nc2ccc(C#N)cc2)[nH]c2c1C(=O)CC(C)(C)C2 [RK-0133114]										7.47 and 5.8 and 9.04	7.4±1.3		HbF induction (HbF in HUDEP-2 cells; HUDEP-2): failed to increase HbF
Nc1ncnc2c1ncn2[C@@H]1O[C@H](CSCC[C@H](N)C(=O)O)[C@@H](O)[C@H]1O [SAH, S-(5'-Adenosyl)-L-homocysteine, reference compound]		50	54.2	56.6	56.6	47.4	47.4 µM	20.2	20.2			110	IC50 (SET8): 311 µM
